pKi: −log10 of the molar value. Values after ≈ are worked out from the molar mass of the structure shown. Active and inactive are the calls of the source. The rule behind the calls is not given here.
Assays:
[1] = biological target: T1, GABA-A receptor; alpha-5/beta-3/gamma-2 (Homo sapiens, UniProt P18507+P28472+P31644)
T1 sequence (P18507 whole entry): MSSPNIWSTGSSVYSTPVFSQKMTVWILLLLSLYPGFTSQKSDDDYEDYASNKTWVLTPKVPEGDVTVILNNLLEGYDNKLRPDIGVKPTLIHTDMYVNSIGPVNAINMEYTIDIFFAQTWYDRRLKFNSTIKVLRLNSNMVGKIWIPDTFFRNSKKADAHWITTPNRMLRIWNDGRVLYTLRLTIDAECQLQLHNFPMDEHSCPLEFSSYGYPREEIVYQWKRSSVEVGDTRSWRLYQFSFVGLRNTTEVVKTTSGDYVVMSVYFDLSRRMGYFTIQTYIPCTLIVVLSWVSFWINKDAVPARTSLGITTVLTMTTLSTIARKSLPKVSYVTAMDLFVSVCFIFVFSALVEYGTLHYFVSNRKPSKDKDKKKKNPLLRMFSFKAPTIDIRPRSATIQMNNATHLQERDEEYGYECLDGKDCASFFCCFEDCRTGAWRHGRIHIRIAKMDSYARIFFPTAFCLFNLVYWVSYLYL
T1 sequence (P28472 whole entry): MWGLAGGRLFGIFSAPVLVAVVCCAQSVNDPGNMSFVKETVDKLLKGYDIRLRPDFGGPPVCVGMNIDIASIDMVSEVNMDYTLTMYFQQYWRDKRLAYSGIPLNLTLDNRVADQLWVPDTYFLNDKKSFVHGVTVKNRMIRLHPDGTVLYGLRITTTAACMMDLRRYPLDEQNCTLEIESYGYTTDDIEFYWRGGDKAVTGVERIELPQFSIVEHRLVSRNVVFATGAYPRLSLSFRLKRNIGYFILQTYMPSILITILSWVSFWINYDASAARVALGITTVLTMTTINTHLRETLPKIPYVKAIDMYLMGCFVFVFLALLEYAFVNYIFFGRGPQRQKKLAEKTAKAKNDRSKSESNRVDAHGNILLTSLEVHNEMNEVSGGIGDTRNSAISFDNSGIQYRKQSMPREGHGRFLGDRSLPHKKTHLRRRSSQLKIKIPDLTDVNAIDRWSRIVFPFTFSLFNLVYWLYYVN
T1 sequence (P31644 whole entry): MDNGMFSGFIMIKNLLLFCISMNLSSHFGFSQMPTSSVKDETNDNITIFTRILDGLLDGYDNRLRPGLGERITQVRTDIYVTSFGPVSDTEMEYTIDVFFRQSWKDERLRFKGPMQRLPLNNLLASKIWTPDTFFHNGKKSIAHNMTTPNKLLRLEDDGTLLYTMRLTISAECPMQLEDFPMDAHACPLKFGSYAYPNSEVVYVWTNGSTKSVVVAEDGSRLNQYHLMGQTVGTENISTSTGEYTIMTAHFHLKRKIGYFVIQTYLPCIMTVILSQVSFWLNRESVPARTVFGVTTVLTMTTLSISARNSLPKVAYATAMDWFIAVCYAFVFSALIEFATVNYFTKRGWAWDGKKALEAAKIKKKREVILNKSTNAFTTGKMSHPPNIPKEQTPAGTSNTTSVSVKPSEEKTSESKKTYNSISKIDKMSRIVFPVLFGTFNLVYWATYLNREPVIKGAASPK
Description: Binding affinity to GABAA alpha-5-beta-3-gamma-2 receptor

in vitro = conditions: PAMPA
Description: Membrane permeability by PAMPA

physchem [2] = conditions: buffer, pH 7.4
Description: Lipophilicity, log Dof the compound at pH 7.4

physchem [3] = assay: physchem
Liver microsomes [4] = conditions: human
Description: Clearance in human liver microsomes

Liver microsomes [5] = conditions: rat
Description: Clearance in rat liver microsomes

Rattus norvegicus [6] = assay: Inhibition of scopolamine-induced cognitive deficit in Wistar rat at 100 mg/kg, ip by passive avoidance test; type: functional, organism-based; parameters: dose 100 mg/kg
Rattus norvegicus [7] = assay: Inhibition of scopolamine-induced cognitive deficit in Wistar rat at 3 mg/kg, ip by passive avoidance test; type: functional, organism-based; parameters: dose 3 mg/kg

SMILES	pKi [1]	other results
Clc1ncn2c1Cn1cnnc1-c1cc(Br)ccc1-2	7.56	–
C#Cc1ccc2c(c1)-c1nc(C)ncc1Cc1c(Cl)ncn1-2	6.88	–
Cc1ncn2c1Cn1nccc1-c1cc(Br)ccc1-2	7.31	–
CCOC(=O)c1ncn2c1Cc1cnc(Cc3ccc(OC)cc3)nc1-c1ccccc1-2	7.90	–
Cc1ncn2c1Cn1ccnc1-c1cc(Br)ccc1-2	8.18	–
CCOC(=O)c1ncn2c1Cn1ncnc1-c1cc(Cl)ccc1-2	9.70	Papp (in vitro): 5.59 ×10⁻⁶ cm/s; logD (physchem [2]): 1.83; solubility (physchem [3]): 15 µg/mL (≈ 45.5 µM)
O=C(c1ncn2c1Cn1nccc1-c1ccccc1-2)C1CC1	9.00	–
CCOC(=O)c1ncn2c1Cn1cnnc1-c1cc(O)ccc1-2	9.22	–
CCOC(=O)c1ncn2c1Cn1c(-c3ccccc3)nnc1-c1cc(OC)ccc1-2	7.27	–
Cc1cn2c(n1)-c1cc(Br)ccc1-n1cnc(C)c1C2	6.92	–
CCOC(=O)c1ncn2c1Cn1cnnc1-c1cc(C)ccc1-2	8.68	–
CCOC(=O)c1ncn2c1Cc1cncnc1-c1cc(Br)ccc1-2	7.69	–
Cc1ncn2c1Cn1nccc1-c1ccccc1-2	8.52	–
CCOC(=O)c1ncn2c1Cn1c(C)nnc1-c1cc(OC)ccc1-2	7.84	–
CCOC(=O)c1ncn2c1Cn1cnnc1-c1cc(Br)ccc1-2	9.22	–
CCOC(=O)c1ncn2c1Cn1ncnc1-c1cc(Br)ccc1-2	9.52	–
Cc1ncc2c(n1)-c1ccccc1-n1cnc(Cl)c1C2	7.81	–
CCOc1ncn2c1Cn1nccc1-c1ccccc1-2	9.70	–
Brc1ccc2c(c1)-c1nncn1Cc1c(I)ncn1-2	8.11	–
Clc1ncn2c1Cn1nccc1-c1ccccc1-2	8.70	–
CCOC(=O)c1ncn2c1Cc1cnc(C3CC3)nc1-c1ccccc1-2	8.12	–

SMILES	pKi [1]	other results
c1ccc2c(c1)-c1ncnn1Cc1cncn1-2	8.19	Papp (in vitro): 2.87 ×10⁻⁶ cm/s; logD (physchem [2]): 0.73; CL (Liver microsomes [4]): 8000 µL/min/mg; CL (Liver microsomes [5]): 4000 µL/min/mg; solubility (physchem [3]): 231 µg/mL (≈ 1030 µM)
CCOC(=O)c1ncn2c1Cn1c(Cc3ccccc3)nnc1-c1cc(Br)ccc1-2	7.72	–
CCOC(=O)c1ncn2c1Cc1cnc(-c3ccccc3)nc1-c1ccccc1-2	6.77	–
Clc1ncn2c1Cc1cncnc1-c1ccccc1-2	7.81	–
N#Cc1ccc2c(c1)-c1nncn1Cc1c(Cl)ncn1-2	7.60	–
CCOC(=O)c1ncn2c1Cn1ncnc1-c1cc(OC(F)(F)F)ccc1-2	9.10	–
CCOC(=O)c1ncn2c1Cc1cnc(C3CC3)nc1-c1cc(F)ccc1-2	8.11	–
CCOc1ncn2c1Cn1nccc1-c1cc(Cl)ccc1-2	8.85	–
CCOC(=O)c1ncn2c1Cn1cnnc1-c1ccccc1-2	9.10	–
CCOC(=O)c1ncn2c1Cc1cnc(C)nc1-c1cc(Br)ccc1-2	7.90	Papp (in vitro): 3.6 ×10⁻⁶ cm/s; logD (physchem [2]): 2.68; CL (Liver microsomes [4]): 4000 µL/min/mg; inhibition (Rattus norvegicus [6]): Active; solubility (physchem [3]): 20 µg/mL (≈ 50.1 µM)
Cc1ncn2c1Cn1cnnc1-c1cc(Br)ccc1-2	6.82	–
Cc1ncn2c1Cn1cc(CN3CCCC3=O)nc1-c1cc(Br)ccc1-2	8.80	–
CCOC(=O)c1ncn2c1Cn1ncnc1-c1cc(C)ccc1-2	9.30	–
CCOC(=O)c1ncn2c1Cn1ncnc1-c1cc(C3CC3)ccc1-2	9.22	–
C#Cc1ncn2c1Cn1cnnc1-c1cc(Br)ccc1-2	8.11	–
CCOC(=O)c1ncn2c1Cn1cnnc1-c1cc(F)ccc1-2	8.77	–
C#Cc1ccc2c(c1)-c1nncn1Cc1c(Cl)ncn1-2	7.47	–
CCCc1ncc2c(n1)-c1cc(F)ccc1-n1cnc(C(=O)OCC)c1C2	8.10	–
CCOC(=O)c1ncn2c1Cc1cncnc1-c1ccccc1-2	8.43	–
CCOC(=O)c1ncn2c1Cc1cnc(C)nc1-c1ccccc1-2	8.42	–
CC(C)C(=O)c1ncn2c1Cn1cnnc1-c1cc(Br)ccc1-2	7.26	–

SMILES	pKi [1]	other results
C#Cc1ccc2c(c1)-c1ncnn1Cc1c(C(=O)OCC)ncn1-2	9.22	–
CCCc1ncc2c(n1)-c1ccccc1-n1cnc(C(=O)OCC)c1C2	8.26	–
CCOC(=O)c1ncn2c1Cn1ncnc1-c1cc(OC)ccc1-2	9.70	–
CCOC(=O)c1ncn2c1Cc1cnc(C)nc1-c1cc(F)ccc1-2	8.34	–
CCOC(=O)c1ncn2c1Cn1cnnc1-c1cc(Cl)ccc1-2	8.92	–
CCOC(=O)c1ncn2c1Cc1cnc(C(C)C)nc1-c1ccccc1-2	8.05	–
Cc1ncn2c1Cn1c(C)cnc1-c1cc(Br)ccc1-2	7.93	–
CCOC(=O)c1ncn2c1Cn1c(Cc3ccccc3)nnc1-c1cc(OC)ccc1-2	7.64	–
Clc1ncn2c1Cc1cncnc1-c1cc(Br)ccc1-2	6.87	–
Cc1ncc2c(n1)-c1cc(Br)ccc1-n1cnc(Cl)c1C2	7.21	–
CCOC(=O)c1ncn2c1Cn1ncnc1-c1cc(NC(=O)C(C)C)ccc1-2	8.19	–
CCOC(=O)c1cn2c(n1)-c1cc(Br)ccc1-n1cnc(C)c1C2	8.27	–
CCOC(=O)c1ncn2c1Cc1cnc(C(C)C)nc1-c1cc(F)ccc1-2	7.95	–
CCOC(=O)c1ncn2c1Cn1ncnc1-c1ccccc1-2	9.70	–
CCOC(=O)c1ncn2c1Cn1cnnc1-c1cc(OC)ccc1-2	8.85	inhibition (Rattus norvegicus [7]): Active
c1ccc2c(c1)-c1ncncc1Cc1cncn1-2	6.39	–
C#Cc1ccc2c(c1)-c1nncn1Cc1c(C(=O)OCC)ncn1-2	8.64	–
Cc1ncn2c1Cn1cc(CO)nc1-c1cc(Br)ccc1-2	8.09	–
C#Cc1ccc2c(c1)-c1nc(C)ncc1Cc1c(C(=O)OCC)ncn1-2	8.09	Papp (in vitro): 2.78 ×10⁻⁶ cm/s; logD (physchem [2]): 2.68; CL (Liver microsomes [4]): 8000 µL/min/mg; solubility (physchem [3]): 10 µg/mL (≈ 29 µM)
